For 22 molecules, IC50 results are on record in patent publication US20240409556A1, “BENZOPIPERAZINE AND RELATED ANALOGS FOR INHIBITING YAP/TAZ-TEAD” (Springworks Therapeutics, Inc., priority 2023, published 2024).

The test system of one assay is YAP/TAZ-TEAD transcription. The assay is described as follows: Reporter gene assay for measuring the inhibition of YAP/TAZ-TEAD transcription (TEAD-responsive element luciferase reporter in Hek293T cells). The class given is cell-based. The following applies: 24 hours incubation. The procedure: Example 56: Activity of Compounds of the Disclosure in a Reporter Gene Assay for Measuring the Inhibition of YAP/TAZ-TEAD Transcription
Hek293T cells were cultured in DMEM supplemented with 10% fetal bovine serum, Sodium pyruvate, Sodium bicarbonate, L-glutamine. The cells were harvested and transiently transfected with TEAD-responsive element luciferase reporter. Transfected cells were plated in 384-well plate containing pre-diluted compounds. After 24 hours incubation at 37° C./5% CO2, assay plates were cooled to room temperature and levelled to an equal volume per well, prior to the addition of 25 uL luciferase substrate SteadyLite (Perkin Elmer)/well. The plate was shaken for 10 min at 600 rpm, centrifuged for 1 min at 500 rpm and measured with an Envision reader (PerkinElmer). The amount of relative light units produced by the TEAD reporter was used to calculate the percentage of inhibition.
The percent of reporter inhibition was calculated in the presence of a positive control inhibitor (100% inhibition) versus a condition with the presence of the vehicle basal activity of the reporter (0% inhibition). The ability of a test compound to inhibit this activity was determined as: Percentage inhibition=[[…]((RLU determined in the presence of vehicle−RLU determined for sample with test compound present) divided by (RLU determined in the presence of vehicle−RLU determined for sample with positive control inhibitor))]*100.
The activities of example compounds tested are depicted in Table 3. The activity ranges A, B and C refer to IC50 values in the reporter gene assay as follows: “A”: IC50<1 μM; “B”: 1 μM≤IC50≤10 μM and “C”: IC50>10 μM; NT=not tested.
A general note: A reporter such as luciferase makes a cellular process visible.
Regarding `C=CC(=O)N1CCN2c3ncccc3N(c3ccc(C(F)(F)F)cc3)CC2C1` (stereo not shown) [28-En2, 1-(5-(4-(trifluoromethyl)phenyl)-5,6,6a,7,9,10-hexahydro-8H-pyrazino[1,2-a]pyrido[3,2-e]pyrazin-8-yl)prop-2-en-1-one], the IC50 (usually the point on the concentration scale where inhibition reaches its midpoint) was < 1 µM.

Consider `CC(=O)N1CCN2c3ncccc3N(c3ccc(C(F)(F)F)cn3)CC2C1` (stereo not shown) [53-En2, 1-(5-(5-(trifluoromethyl)pyridin-2-yl)-5,6,6a,7,9,10-hexahydro-8H-pyrazino[1,2-a]pyrido[3,2-e]pyrazin-8-yl)ethan-1-one], for which the IC50 was > 10 µM.

As to `O=C(O)C1CCN2c3ncccc3N(c3ccc(C(F)(F)F)cc3)CC2C1` [96A-En2, (6aS,8S)- or (6aR,8S)- or (6aR,8R)- or (6aS,8R)-5-(4-(trifluoromethyl)phenyl)-6,6a,7,8,9,10-hexahydro-5H-dipyrido[1,2-a:3′,2′-e]pyrazine-8-carboxylic acid], the IC50 was < 1 µM.

As for `Cc1ccc2c(n1)N1CCC(C(=O)O)CC1CN2c1ccc(C(F)(F)F)cc1` [101-D3, (6aS,8S)— or (6aR,8S)— or (6aR,8R)— or (6aS,8R)-2-methyl-5-(4-(trifluoromethyl)phenyl)-6,6a,7,8,9,10-hexahydro-5H-dipyrido[1,2-a:3′,2′-e]pyrazine-8-carboxylic acid], the IC50 is < 1 µM.

Molecule `CC1(C(=O)O)CCN2c3ccccc3N(c3ccc(C(F)(F)F)cc3)CC2C1` [115-D1, (6aS,8S)— or (6aR,8S)— or (6aR,8R)— or (6aS,8R)-8-methyl-5-(4-(trifluoromethyl)phenyl)-6,6a,7,8,9,10-hexahydro-5H-pyrido[1,2-a]quinoxaline-8-carboxylic acid] came in with an IC50 of 1 to 10 µM.

Regarding `CC1(C(=O)O)CCN2c3ccccc3N(c3ccc(C(F)(F)F)cc3)CC2C1` [115-D2, (6aS,8S)— or (6aR,8S)— or (6aR,8R)— or (6aS,8R)-8-methyl-5-(4-(trifluoromethyl)phenyl)-6,6a,7,8,9,10-hexahydro-5H-pyrido[1,2-a]quinoxaline-8-carboxylic acid], the IC50 is < 1 µM.

`O=C(O)C1(F)CCN2c3ccccc3N(c3ccc(C(F)(F)F)cc3)CC2C1` [123-D2, (6aS,8S)- or (6aR,8S)- or (6aR,8R)- or (6aS,8R)-8-fluoro-5-(4-(trifluoromethyl)phenyl)-6,6a,7,8,9,10-hexahydro-5H-pyrido[1,2-a]quinoxaline-8-carboxylic acid]: the IC50 is < 1 µM.

Regarding `O=C(O)C1(F)CCN2c3ccccc3N(c3ccc(C(F)(F)F)cc3)CC2C1` [123-D3, (6aS,8S)- or (6aR,8S)- or (6aR,8R)- or (6aS,8R)-8-fluoro-5-(4-(trifluoromethyl)phenyl)-6,6a,7,8,9,10-hexahydro-5H-pyrido[1,2-a]quinoxaline-8-carboxylic acid], the IC50 was < 1 µM.

For `O=C(O)C1(F)CCN2c3ccccc3N(c3ccc(C(F)(F)F)cc3)CC2C1` [123-D4, (6aS,8S)- or (6aR,8S)- or (6aR,8R)- or (6aS,8R)-8-fluoro-5-(4-(trifluoromethyl)phenyl)-6,6a,7,8,9,10-hexahydro-5H-pyrido[1,2-a]quinoxaline-8-carboxylic acid], the IC50 was < 1 µM.

Still in this assay, the particulars now being: Homo sapiens, HEK-293T, 24 h, 24 hours incubation.
As to `CC(=O)NC[C@H]1CN(c2ccc(C(F)(F)F)cc2)c2cccnc2N1` [39-En1, (S)-N-((1-(4-(trifluoromethyl)phenyl)-1,2,3,4-tetrahydropyrido[2,3-b]pyrazin-3-yl)methyl)acetamide], the IC50 was < 1 µM.

As for `CC(=O)NC[C@@H]1CN(c2ccc(C(F)(F)F)cc2)c2cccnc2N1` [39-En2, (R)-N-((1-(4-(trifluoromethyl)phenyl)-1,2,3,4-tetrahydropyrido[2,3-b]pyrazin-3-yl)methyl)acetamide], the IC50 is < 1 µM.

`CNC(=O)O[C@H]1C[C@@H]2CN(c3ccc(C(F)(F)F)cc3)c3cccnc3N2C1` [55-En1, (6aR,8S)-5-(4-(trifluoromethyl)phenyl)-5,6,6a,7,8,9-hexahydropyrido[3,2-e]pyrrolo[1,2-a]pyrazin-8-yl methylcarbamate]: the IC50 was < 1 µM.

As to `O=C(O)C1CCN2c3ccccc3N(c3ccc(C(F)(F)F)cc3)CC2C1` (stereo not drawn) [65A, (cis)- or (trans)-5-(4-(trifluoromethyl)phenyl)-6,6a,7,8,9,10-hexahydro-5H-pyrido[1,2-a]quinoxaline-8-carboxylic acid], the IC50 is < 1 µM.

As for `CC(=O)N[C@@H]1C[C@@H]2CN(c3ccc(C(F)(F)F)cc3)c3cccnc3N2C1` [70-D1, N-((6aR,8R)-5-(4-(trifluoromethyl)phenyl)-5,6,6a,7,8,9-hexahydropyrido[3,2-e]pyrrolo[1,2-a]pyrazin-8-yl)acetamide], the IC50 is < 1 µM.

Regarding `CC(=O)N[C@H]1C[C@@H]2CN(c3ccc(C(F)(F)F)cc3)c3cccnc3N2C1` [70-D2, N-((6aR,8S)-5-(4-(trifluoromethyl)phenyl)-5,6,6a,7,8,9-hexahydropyrido[3,2-e]pyrrolo[1,2-a]pyrazin-8-yl)acetamide], the half-maximal inhibitory concentration (IC50) was < 1 µM.

For `O=C(O)C1CCN2c3ncccc3N(c3ccc(C(F)(F)F)cc3)CC2C1` [96A-En1, (6aS,8S)- or (6aR,8S)- or (6aR,8R)- or (6aS,8R)-5-(4-(trifluoromethyl)phenyl)-6,6a,7,8,9,10-hexahydro-5H-dipyrido[1,2-a:3′,2′-e]pyrazine-8-carboxylic acid], the IC50 was < 1 µM.

As to `O=C(O)C1CCN2c3ncc(Cl)cc3N(c3ccc(C(F)(F)F)cc3)CC2C1` (stereo not drawn) [100A, (cis)- or (trans)-3-chloro-5-(4-(trifluoromethyl)phenyl)-6,6a,7,8,9,10-hexahydro-5H-dipyrido[1,2-a:3′,2′-e]pyrazine-8-carboxylic acid], the IC50 is < 1 µM.

Regarding `Cc1ccc2c(n1)N1CCC(C(=O)O)CC1CN2c1ccc(C(F)(F)F)cc1` [101-D1, (6aS,8S)— or (6aR,8S)— or (6aR,8R)— or (6aS,8R)-2-methyl-5-(4-(trifluoromethyl)phenyl)-6,6a,7,8,9,10-hexahydro-5H-dipyrido[1,2-a:3′,2′-e]pyrazine-8-carboxylic acid], the IC50 is < 1 µM.

On to `C[C@@H](O)C(=O)N[C@@H]1C[C@@H]2CN(c3ccc(C(F)(F)F)cc3)c3cccnc3N2C1` [109-En1, (R)-2-hydroxy-N-((6aR,8R)-5-(4-(trifluoromethyl)phenyl)-5,6,6a,7,8,9-hexahydropyrido[3,2-e]pyrrolo[1,2-a]pyrazin-8-yl)propanamide], for which the IC50 was < 1 µM.

On to `O=C(NO)C1CCN2c3ccccc3N(c3ccc(C(F)(F)F)cc3)CC2C1` [116B-En1, (6aS,8S)- or (6aR,8S)- or (6aR,8R)- or (6aS,8R)-N-hydroxy-5-(4-(trifluoromethyl)phenyl)-6,6a,7,8,9,10-hexahydro-5H-pyrido[1,2-a]quinoxaline-8-carboxamide], for which the IC50 was < 1 µM.

Consider `NC(=O)C1CCN2c3ccccc3N(c3ccc(C(F)(F)F)cc3)CC2C1` (stereo not drawn) [117B-En1, (cis)- or (trans)-5-(4-(trifluoromethyl)phenyl)-6,6a,7,8,9,10-hexahydro-5H-pyrido[1,2-a]quinoxaline-8-carboxamide], for which the IC50 is < 1 µM.

In turn, `FC(F)(F)c1ccc(N2CC3CC(c4nnn[nH]4)CCN3c3ccccc32)cc1` (stereo not shown) [121-D1, 8-(1H-tetrazol-5-yl)-5-(4-(trifluoromethyl)phenyl)-6,6a,7,8,9,10-hexahydro-5H-pyrido[1,2-a]quinoxaline] showed an IC50 of 1 to 10 µM.
